For data set [1], the system named is corpora allata of the cockroach Diploptera punctata (JH biosynthesis). In words: In vitro radiochemical assay of JH biosynthesis/release by corpora allata. The class given is cell-based. The settings on record: for bioactivity (inhibition of JH biosynthesis): result in words. As for the experimental part:
Rates of JH release were determined by the in vitro radiochemical method of Feyereisen and Tobe (Anal. Biochem., 111:372–375, 1981) and as modified by Tobe and Clarke (Tobe and Clarke, Insect Biochem., 15:175–179, 1985). The incorporation of L[^14C—S-methyl]-methionine (50 μM, specific radioactivity 1.48–2.03 GBq/mmol from New England Nuclear or Amersham) into JH III at its penultimate step of biosynthesis by CA incubated in 50 μl TC 199 (GIBCO, 1.3 mM Ca^2+, 2% Ficoll, methionine-free) was used to quantify JH release. Animals were anaesthetized on ice prior to dissection. Corpora allata were dissected directly into non-radioactive medium (only animals with oviposited basal oocytes were used for assay). Samples were dried with nitrogen and resuspended in 10 μl 1N HCl. Radioactive medium was added and neutralized with 10 μl NaOH. Individual CA were transferred from non-radioactive medium to radioactive medium and were incubated for 3 h. The amount of inhibition was expressed as the percent reduction from the untreated rate: [1-(treated rate/untreated rate))] ×100%. Each value represents replicate incubations of a minimum of 8 tests.
D. punctata females mate almost immediately following emergence. Therefore, newly emerged, mated females were transferred each day from the stock culture to an incubator and kept at 27±1° C. The relative humidity was approximately 50% with a 12 hour light:dark cycle. Insects were reared on Purina Lab Chow and water. Mating was confirmed by the presence of a spermatophore. Basal oocyte length was also measured (day 5=1.44–1.68 mm). Only day 5 mated females were utilized for the degradation studies. Day 7 mated females (only with oviposited basal oocytes) were the source of corpora allata for analysis of JH biosynthesis.
Radiochemical assays were conducted as described in Example 1.

Another data set has as its system hemolymph peptidases. In words: in vitro. The class given is in vitro ADME, Diploptera punctata. The settings on record: female, Diploptera punctata. As for the experimental part:
(§1) Day 5 mated female D. punctata were anaesthetized on ice before dissection. Following dissection, tissues were stored in saline (0.9% NaCl pH 7.0–7.2 or cockroach saline; […] at pH 7.2–7.4) on ice. Tissues were cleaned of fat body and trachea and guts were cleaned. Midgut peritrophic membrane was removed, midguts cut open, the guts gently pulled through forceps and then washed 3×. Tissues were stored at −70° C. until sufficient material was collected.
(§2) Hemolymph was collected following the method of King and Tobe (Insect Biochem., 18:793–805, 1988). Hemolymph was diluted 100× with saline.
(§3) Crude membrane preparation or hemolymph was aliquoted into 1.5 ml microcentrifuge tubes for in vitro assay. Dip-AST5 (6 μM) or analog was added to each assay tube from a 1 mM stock solution. Total incubation volume was 500 μl. Tubes were placed on a shaker at room temp for the duration of the incubation time. Incubations were terminated by the addition of 200 μl 30% aqueous TFA. Samples were centrifuged at 10,000 g and the supernatant was applied to a C18 solid phase extraction column. None of the potential, synthetic Dip-AST5 metabolites are lost (unpublished data). The 17–40% acetonitrile fraction was concentrated with a Speed-Vac apparatus and held at −70° C. until HPLC analysis. Samples is were diluted in 0.5 ml 0.1% aqueous TFA, filtered through 0.2 μm micro-spin filters and injected onto the HPLC column. Separation of allatostatins and their catabolites, or analogs and their catabolites, was performed using reversed-phase HPLC (see HPLC methods). When available, retention times of synthetic metabolites were used as a reference to identify endogenous metabolites. Dip-AST5 fragments were synthesized by the Institute for Biosciences and Technology, Dept. of Entomology, Texas A & M University. Dip-ASTs were synthesized by the Core Facility of Insect Biotech Canada (Department of Biochemistry, Queen's University) or obtained from Sigma Chemical Co., St. Louis, Mo. 63178 USA. The identity of fragments resulting from peptidase degradation was also confirmed by FAB mass spectrometry by adding samples in a glycerol medium (1.5 μl) onto a copper probe, followed by bombardment with 8 kV Xe atoms on a Kratos MS-50 mass spectrometer. (Kratos, Manchester, UK).
(§4) Degradation experiments were analyzed by RP-HPLC using a 220×4.6 mm Brownlee Phenyl column (5 μm) on a Spectra-Physics chromatography system with a Spectra-Physics Chromjet integrator and a Spectra-Physics 8490 detector. Following a 5 min wash with 1.5% acetonitrile in 0.1 aqueous TFA, a linear gradient of acetonitrile (15–37.5% in 50 min; 37.5–65% in 5 min) at a flow rate of 0.5 ml/min was used to elute peptides and analogs. […]

Data set [2] can be described thus: in vitro. The class given is in vitro ADME, Diploptera punctata. Here is the method: as §1, §2, §3, §4
Another data set relates to brain peptidases. In words: in vitro. The format is in vitro ADME, Diploptera punctata. The settings on record: female, tissue homogenate; for half-life at 6 μM: Diploptera punctata. As for the experimental part:
as §1
(§5) Tissues were pooled and homogenized in saline on ice in microcentrifuge tubes (2.5 ml) for 2 min with an Omni hand held homogenizer. Homogenates were centrifuged at 1000 g for ten min at 4° C. to remove cellular debris. The pellet was discarded. Supernatant was subsequently centrifuged at 30,000 g for 30 min. Pellet (crude membrane preparation) was washed three times in homogenization buffer and resuspended in saline using the Omni homogenizer.
as §3
(§6) Degradation experiments were analyzed by RP-HPLC using a 220×4.6 mm Brownlee Phenyl column (5 μm) on a Spectra-Physics chromatography system with a Spectra-Physics Chromjet integrator and a Spectra-Physics 8490 detector. Following a 5 min wash with 1.5% acetonitrile in 0.1 aqueous TFA, a linear gradient of acetonitrile (15–37.5% in 50 min; 37.5–65% in 5 min) at a flow rate of 0.5 ml/min was used to elute peptides and analogs. Fractions (0.5 ml) were collected each minute during the gradient run.

A short description of data set [3]: in vitro. The format is in vitro ADME, Diploptera punctata. Here is the method:
as §1, §5, §3, §6
This is another data set of the same source.

For a further data set, the system named is midgut peptidases. In words: in vitro. The format is in vitro ADME, Diploptera punctata. The settings on record: female, tissue homogenate. Here is the method: as §1, §5, §3, §6
Data set [4] can be described thus: Penetration of analog through isolated cockroach cuticle (RPLC of well contents). The class given is in vitro ADME, American cockroach. As for the experimental part: Adults of the American cockroach were obtained from. colonies at our facility (CMAVE). Animals, anesthetized by submersion in H2O for 30 min, were pinned ventral side up in a wax dissecting dish flooded with water. Lateral incisions along the margins of the abdominal sternites were made between segments 1–7. The epidermal layers including the cuticle and epidermal cells were lifted up and associated tissue was cleared using forceps prior to removal. The epidermal tissue was placed cell side up on a microscope slide and the cells were scraped from the cuticle using a glass cover slip. To further clean the cuticle of cellular debris the tissue was floated, cell side down, in a beaker containing H2O and subjected to sonication in a water bath at 30° C. for 30 min. The cuticle strips were then washed 3× in clean water. Pieces of cuticle, ca. 0.4 cm^2, composed of individual sternites without associated intersegmental membranes were then dissected away from remaining cuticle.
Incubation of cuticle was accomplished using the wells of ELISA plates (Corning, 96 well Easy Wash). […]
Dried samples were reconstituted in 35% acetonitrile (MeCN) (Burdick and Jackson) prior to analysis. […] Data acquired from analyses were reduced and analyzed using NCSS 97 software using regression analysis and T-Tests.

[5] abbreviates: 3 h in vitro radiochemical assay, single 7-day mated CA, read-out: IC50, half-maximal inhibition of JH release.

Like-named read-outs stand apart in the source and are kept apart here. Ends that are not written are not given here. Peptide text beside a SMILES is read from it. carboranyl propanoic acid = 2-o-carboranylpropanoic acid

For `CC(C)C[C@H](NC(=O)C1(NC(=O)[C@H](Cc2ccccc2)NC(=O)[C@H](CC(N)=O)NC(=O)CCc2ccccc2)CC1)C(N)=O` [AST(b)φ2, Hca-Asn-Phe-Cpa-Leu-NH2] (HELM PEPTIDE1{[O=C(CCc1ccccc1)[*:2]].N.F.[O=C(C1(N[*:1])CC1)[*:2]].L.[am]}$$$$V2.0), in data set [1] (setting [5]), the IC50 was determined as 1550 nM. In addition, the “bioactivity (inhibition of JH biosynthesis)” value in data set [1] is recorded as “significant biological activity”. Besides, in the data set with hemolymph peptidases, the half-life at 6 μM stood at 20.2 h. In “in vitro [2]”, the “longer half-life than the native neuropeptide Dip-AST5” value came out at 8 fold and the “resistance to degradation by enzymes” value is recorded as “extreme resistance”. Further, the half-life at 6 μM in the data set on brain peptidases came out at 180 h. For the same molecule, in “in vitro [3]”, the “longer half-life than the native neuropeptide Dip-AST5” value was found to be 600 fold and the “resistance to midgut peptidases” value is given as “completely resistant”. In the data set “in vitro [3]” (tissue homogenate), the “Half-life, Midgut” value is “∞”.
Take `CC(C)C[C@H](NC(=O)CNC(=O)C1(NC(=O)[C@H](CC(N)=O)NC(=O)[C@H](Cc2ccc(O)cc2)NC(=O)[C@@H]2CCCN2C(=O)[C@H](CCCNC(=N)N)NC(=O)[C@H](C)N)Cc2ccccc2C1)C(N)=O` [analog 396-1, Ala-Arg-Pro-Tyr-Asn-Aic-Gly-Leu-NH2] (HELM PEPTIDE1{A.R.P.Y.N.[O=C(C1(N[*:1])Cc2ccccc2C1)[*:2]].G.L.[am]}$$$$V2.0; N-terminus assumed): the IC50 in data set [1] (read-out: IC50) amounted to 2.12 nM. Besides, the “bioactivity (inhibition of JH biosynthesis)” value in data set [1] is listed as “significant bioactivity”. Besides, the half-life with brain peptidases stood at 0.287 h; in the data set on midgut peptidases, 0.377 h. Besides, the “resistance to cleavage by membrane-bound enzymes” value in the data set “in vitro [3]” is reported as “little resistance”.
In the case of `CC(C)C[C@H](NC(=O)C1(NC(=O)[C@H](Cc2ccccc2)NC(=O)[C@H](CC(N)=O)NC(=O)[C@H](Cc2ccc(O)cc2)NC(=O)[C@@H]2CCCN2C(=O)[C@H](CCCNC(=N)N)NC(=O)[C@H](C)N)CC1)C(N)=O` [analog 397-2, Ala-Arg-Pro-Tyr-Asn-Phe-Cpa-Leu-NH2] (HELM PEPTIDE1{A.R.P.Y.N.F.[O=C(C1(N[*:1])CC1)[*:2]].L.[am]}$$$$V2.0; N-terminus assumed), the IC50 in data set [1] (setting [5]) was found to be 172 nM. Also, the “bioactivity (inhibition of JH biosynthesis)” value in data set [1] was “significant bioactivity”. For the same molecule, the half-life at 6 μM in the data set on brain peptidases is 1.01 h; in the data set on midgut peptidases (Diploptera punctata), 0.347 h. Further, the “resistance to cleavage by membrane-bound enzymes” value in the data set “in vitro [3]” is “little resistance”.
For the molecule `CC(C)C[C@H](NC(=O)CNC(=O)[C@H](Cc1ccccc1)NC(=O)[C@H](CC(N)=O)NC(=O)[C@H](Cc1ccc(O)cc1)NC(=O)CC1c2ccccc2-c2ccccc21)C(N)=O` [analog 525] (HELM PEPTIDE1{[O=C(CC1c2ccccc2-c2ccccc21)[*:2]].Y.N.F.G.L.[am]}$$$$V2.0), the “release rate through the cuticle” value in data set [4] (0.5 nmol applied to cuticle, rate stabilized after six hours) is recorded as “about 1.5 pmol/h”. Moreover, in data set [4] (cockroach cuticle, result in words), the “penetration of the cuticle” value is on record as “penetrated the cuticle effectively”.
For “DRLYSFGL-NH2 [Dip-AST5, reference compound]”, the IC50 in data set [1] (setting [5]) was determined as 3.12 nM; in data set [1] (read-out: IC50) it was 3.1 nM. In the data set “in vitro [2]” (female, Diploptera punctata), this molecule registered a half-life at 6 μM of 2.55 h.
On to “carboranyl propanoic acid-Ser-Phe-Gly-Leu-NH2 ({carboranyl propanoic acid}-SFGL-NH2)”, for which the EC50 in data set [1] (in another assay, read-out: activity (ED50)) was determined as 0.644 nM.

The IC50 is the concentration at which inhibition is half-maximal. As usually defined, the half-life is the time needed for the level to fall by half in the phase considered. High values mean slow decline, low ones rapid decline.

The record behind these values is patent publication US7129226B2, “Mimetic insect allatostatin analogs for insect control” (The United States of America as represented by the …, priority 1998, dated 2006).
